Source: EP4559908A1, “HETEROARYL DERIVATIVE COMPOUND AND USE THEREOF” (S2CBio Inc., priority 2022, dated 2024)

Biological target: T1, human ANO6 (variant 5) (Homo sapiens, UniProt Q4KMQ2)
T1 construct: expressed in transfected cells; host or cells: Fischer rat thyroid (FRT) cells
T1 sequence (Q4KMQ2 1-931 isoform Q4KMQ2-2): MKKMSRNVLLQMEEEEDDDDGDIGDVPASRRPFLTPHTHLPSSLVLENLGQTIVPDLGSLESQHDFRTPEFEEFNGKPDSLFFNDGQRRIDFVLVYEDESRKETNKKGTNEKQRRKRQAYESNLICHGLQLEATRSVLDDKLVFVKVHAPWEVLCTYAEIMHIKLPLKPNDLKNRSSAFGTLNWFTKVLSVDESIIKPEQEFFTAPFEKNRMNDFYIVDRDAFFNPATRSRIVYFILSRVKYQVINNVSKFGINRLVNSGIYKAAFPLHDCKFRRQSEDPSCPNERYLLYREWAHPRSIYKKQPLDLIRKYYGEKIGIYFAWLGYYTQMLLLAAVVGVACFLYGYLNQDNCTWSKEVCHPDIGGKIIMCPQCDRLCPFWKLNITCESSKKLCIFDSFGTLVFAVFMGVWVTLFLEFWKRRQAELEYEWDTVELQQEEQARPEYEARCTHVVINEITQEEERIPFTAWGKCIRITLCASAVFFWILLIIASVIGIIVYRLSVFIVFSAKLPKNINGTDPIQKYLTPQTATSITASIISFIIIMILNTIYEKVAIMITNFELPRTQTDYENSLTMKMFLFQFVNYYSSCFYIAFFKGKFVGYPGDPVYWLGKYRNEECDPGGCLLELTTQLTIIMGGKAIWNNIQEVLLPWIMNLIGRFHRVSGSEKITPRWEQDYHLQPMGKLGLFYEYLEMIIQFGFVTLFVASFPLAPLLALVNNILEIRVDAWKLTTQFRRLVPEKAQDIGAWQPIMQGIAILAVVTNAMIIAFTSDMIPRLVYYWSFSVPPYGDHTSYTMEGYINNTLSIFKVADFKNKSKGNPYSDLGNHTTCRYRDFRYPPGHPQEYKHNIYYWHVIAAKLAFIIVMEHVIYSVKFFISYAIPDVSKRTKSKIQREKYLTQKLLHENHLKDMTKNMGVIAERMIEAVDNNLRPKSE
Experiment: Lact C2 assay (measuring phosphatidylserine externalization scramblase function)
Type: cell-based
Details: FRT, FRT cells expressing human ANO6 (variant 5), ionomycin 10 µM, Lact-C2-GFP fluorescence, average of three tests; for inhibition at 1 µM: compound 1 µM, read-out: % Inhibition 1 µM
Method in brief: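 Cells were pretreated 10 min with compound (50 nM, 100 nM, 1 µM; 1% DMSO), then given 10 µM ionomycin for 10 min. Surface phosphatidylserine was stained with 500 nM Lact-C2-GFP (10 min, 37 °C), fixed and imaged. Inhibition was scaled between untreated (100%) and ionomycin-alone (0%) wells.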

Row | SMILES | inhibition at 0.05 µM (compound 50 nM, read-out: % Inhibition 50 nM) [%] | inhibition at 1 µM [%]
1 | N#Cc1ccc(Nc2cccc(-c3nc4ccc(C(F)(F)F)cc4[nH]3)c2)nc1 [Example 314, 6-((3-(6-(trifluoromethyl)-1H-benzo[d]imidazol-2-yl)phenyl)amino)nicotinonitrile] | > 60 | > 60
2 | N#Cc1ccc(Nc2cccc(-c3nc4ccc(C(F)(F)F)cc4[nH]3)c2)cc1 [Example 315, 4-((3-(6-(trifluoromethyl)-1H-benzo[d]imidazol-2-yl)phenyl)amino)benzonitrile] |  | > 60
3 | Fc1ccccc1-c1ccc(Nc2cccc(-c3nc4ccccc4[nH]3)c2)cc1 [Example 322, N-(3-(1H-benzo[d]imidazol-2-yl)phenyl)-2'-fluoro-[1,1'-biphenyl]-4-amine] |  | > 60
